# Where two headings read alike, the source gives them in different places.
# Legend:
# Assay type in all cases: in vivo
# [1] = tested on: Cabbage Looper (Trichoplusia ni, TRIPNI); test: Bioassay on Cabbage Looper (CL), 128-well diet tray assay; conditions: for mortality at 50 µg/cm2: 168 h, 50 μg/cm^2 on artificial diet, second instar larvae, five to seven days, 25° C., read-out: CL % Control (or Mortality) rating
# How it was run: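 Diet-tray assay: 1–5 second-instar larvae per well on artificial diet surface-treated with 50 μg/cm^2 compound (90:10 acetone-water, dried), eight wells per compound. Held at 25° C., 14:10 light-dark for five to seven days; percent mortality per well averaged across the eight wells.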
# [2] = tested on: Yellow Fever Mosquito (Aedes aegypti, AEDSAE); conditions: about 1 day-old larvae, 3 days, room temperature, scored on mortality
# Experimental: Example C: Bioassays on Yellow Fever Mosqurro (Aedes aegypti, AEDSAE) (“YFM”)
# Certain molecules disclosed in this document were tested against YFM using procedures described in the following paragraph. In the reporting of the results, the “GPA & YFM Rating Table” was used (See Table Section).
# Master plates containing 400 μg of a molecule dissolved in 100 μL of dimethyl sulfoxide (DMSO) (equivalent to a 4000 ppm solution) are used. A master plate of assembled molecules contains 15 μL per well. To this plate, 135 μL of a 90:10 water:acetone mixture is added to each well. A robot (Biomek® NXP Laboratory Automation Workstation) is programmed to dispense 15 μL aspirations from the master plate into an empty 96-well shallow plate (“daughter” plate). There are 6 reps (“daughter” plates) created per master. The created daughter plates are then immediately infested with YFM larvae.
# The day before plates are to be treated, mosquito eggs are placed in Millipore water containing liver powder to begin hatching (4 g. into 400 mL). After the daughter plates are created using the robot, they are infested with 220 μL of the liver powder/larval mosquito mixture (about 1 day-old larvae). After plates are infested with mosquito larvae, a non-evaporative lid is used to cover the plate to reduce drying. Plates are held at room temperature for 3 days prior to grading. After 3 days, each well is observed and scored based on mortality. The results are indicated in the table entitled “Table ABC: Biological Results” (See Table Section).
# [3] = tested on: Beet Armyworm (Spodoptera exigua, LAPHEG); test: Bioassay on Beet Armyworm (BAW), 128-well diet tray assay; conditions: for mortality at 50 µg/cm2: 168 h, 50 μg/cm^2 on artificial diet, second instar larvae, five to seven days, 25° C., read-out: BAW % Control (or Mortality) rating
# How it was run: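 Artificial diet was surface-treated with 50 μg/cm^2 of compound in 90:10 acetone-water and dried; one to five second-instar larvae were placed per well, eight wells per treatment. Held at 25 °C, 14:10 light-dark, for five to seven days, then percent mortality per well was averaged.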
smiles,measurement,setting,value
"C[C@H](CS(=O)(=O)CC(F)(F)F)NC(=O)c1ccc(/C(F)=C/C(c2cc(Cl)cc(Cl)c2)C(F)(F)F)cc1C(F)(F)F (stereo partly drawn) [F17, 4-((Z)-3-(3,5-dichlorophenyl)-1,4,4,4-tetrafluorobut-1-en-1-yl)-N—((R)-1-((2,2,2-trifluoroethyl)sulfonyl)propan-2-yl)-2-(trifluoromethyl)benzamide]",mortality at 50 µg/cm2,[1],50 to 100%
same,YFM % Control (or Mortality) rating,[2],A (80-100)
same,mortality at 50 µg/cm2,[3],50 to 100%
"CCS(=O)(=O)C[C@@H](C)NC(=O)c1ccc(/C(F)=C/C(c2cc(Br)c(Cl)c(Br)c2)C(F)(F)F)cc1C(F)(F)F (stereo partly drawn) [F56, 4-((Z)-3-(3,5-Dibromo-4-chlorophenyl)-1,4,4,4-tetrafluorobut-1-en-1-yl)-N—((R)-1-(ethylsulfonyl)propan-2-yl)-2-(trifluoromethyl)benzamide]",YFM % Control (or Mortality) rating,[2],A (80-100)
"C[C@H](CS(=O)(=O)CC(F)(F)F)NC(=O)c1ccc(/C(F)=C/C(c2cc(Cl)cc(C(C)(F)F)c2)C(F)(F)F)cc1C(F)(F)F (stereo partly drawn) [F120, 4-((Z)-3-(3-Chloro-5-(1,1-difluoroethyl)phenyl)-1,4,4,4-tetrafluorobut-1-en-1-yl)-N—((R)-1-((2,2,2-trifluoroethyl)sulfonyl)propan-2-yl)-2-(trifluoromethyl)benzamide]",mortality at 50 µg/cm2,[1],50 to 100%
same,mortality at 50 µg/cm2,[3],50 to 100%
"CC(CNC(=O)c1ccc(/C(F)=C/C(c2cc(Cl)c(Cl)c(Cl)c2)C(F)(F)F)cc1C(F)(F)F)S(C)(=O)=O (stereo not drawn) [F124, (Z)—N-(2-(methylsulfonyl)propyl)-4-(1,4,4,4-tetrafluoro-3-(3,4,5-trichlorophenyl)but-1-en-1-yl)-2-(trifluoromethyl)benzamide]",mortality at 50 µg/cm2,[1],50 to 100%
same,mortality at 50 µg/cm2,[3],50 to 100%
"C[C@H](CS(=O)(=O)CC(F)(F)F)NC(=O)c1ccc(/C(F)=C/C(c2cc(F)cc(Cl)c2)C(F)(F)F)cc1C(F)(F)F (stereo partly drawn) [F126, 4-((Z)-3-(3-Chloro-5-fluorophenyl)-1,4,4,4-tetrafluorobut-1-en-1-yl)-N—((R)-1-((2,2,2-trifluoroethyl)sulfonyl)propan-2-yl)-2-(trifluoromethyl)benzamide]",mortality at 50 µg/cm2,[1],50 to 100%
same,mortality at 50 µg/cm2,[3],50 to 100%
"C[C@H](CS(=O)(=O)CC(F)(F)F)NC(=O)c1ccc(/C(F)=C/C(c2ccc(Cl)c(OC(F)(F)F)c2)C(F)(F)F)cc1C(F)(F)F (stereo partly drawn) [F127, 4-((Z)-3-(4-Chloro-3-(trifluoromethoxy)phenyl)-1,4,4,4-tetrafluorobut-1-en-1-yl)-N—((R)-1-((2,2,2-trifluoroethyl)sulfonyl)propan-2-yl)-2-(trifluoromethyl)benzamide]",mortality at 50 µg/cm2,[1],50 to 100%
same,mortality at 50 µg/cm2,[3],50 to 100%
"C[C@H](CSCCC#N)NC(=O)c1ccc(/C(F)=C/C(c2cc(Cl)c(Cl)c(Cl)c2)C(F)(F)F)cc1C(F)(F)F (stereo partly drawn) [F128, N—((R)-1-((2-Cyanoethyl)thio)propan-2-yl)-4-((Z)-1,4,4,4-tetrafluoro-3-(3,4,5-trichlorophenyl)but-1-en-1-yl)-2-(trifluoromethyl)benzamide]",mortality at 50 µg/cm2,[1],50 to 100%
same,mortality at 50 µg/cm2,[3],50 to 100%
"C[C@H](CS(=O)(=O)CC(F)F)NC(=O)c1ccc(/C(F)=C/C(c2cc(Cl)c(Cl)c(Cl)c2)C(F)(F)F)cc1C(F)(F)F (stereo partly drawn) [F129, N—((R)-1-((2,2-difluoroethyl)sulfonyl)propan-2-yl)-4-((Z)-1,4,4,4-tetrafluoro-3-(3,4,5-trichlorophenyl)but-1-en-1-yl)-2-(trifluoromethyl)benzamide]",mortality at 50 µg/cm2,[1],50 to 100%
same,mortality at 50 µg/cm2,[3],50 to 100%
"Cc1c(C(/C=C(\F)c2ccc(C(=O)N[C@H](C)CS(=O)(=O)CC(F)(F)F)c(C(F)(F)F)c2)C(F)(F)F)ccc(Cl)c1Cl (stereo partly drawn) [F132, 4-((Z)-3-(3,4-Dichloro-2-methylphenyl)-1,4,4,4-tetrafluorobut-1-en-1-yl)-N—((R)-1-((2,2,2-trifluoroethyl)sulfonyl)propan-2-yl)-2-(trifluoromethyl)benzamide]",mortality at 50 µg/cm2,[1],50 to 100%
same,mortality at 50 µg/cm2,[3],50 to 100%
"C[C@H](CS(=O)(=O)CC(F)(F)F)NC(=O)c1ccc(/C(F)=C/C(c2cc(F)c(F)c(F)c2)C(F)(F)F)cc1C(F)(F)F (stereo partly drawn) [F133, 4-((Z)-1,4,4,4-Tetrafluoro-3-(3,4,5-trifluorophenyl)but-1-en-1-yl)-N—((R)-1-((2,2,2-trifluoroethyl)sulfonyl)propan-2-yl)-2-(trifluoromethyl)benzamide]",mortality at 50 µg/cm2,[1],50 to 100%
same,mortality at 50 µg/cm2,[3],50 to 100%
"C[C@H](CS(=O)(=O)CC(F)(F)F)NC(=O)c1ccc(/C(F)=C/[C@@H](c2cc(Cl)c(Cl)c(Cl)c2)C(F)(F)F)cc1C(F)(F)F [F136, 4-((S,Z)-1,4,4,4-tetrafluoro-3-(3,4,5-trichlorophenyl)but-1-en-1-yl)-N—((R)-1-((2,2,2-trifluoroethyl)sulfonyl)propan-2-yl)-2-(trifluoromethyl)benzamide]",mortality at 50 µg/cm2,[1],50 to 100%
same,mortality at 50 µg/cm2,[3],50 to 100%
"C[C@H](CSCCC(F)(F)F)NC(=O)c1ccc(/C(F)=C/C(c2cc(Cl)c(Cl)c(Cl)c2)C(F)(F)F)cc1C(F)(F)F (stereo partly drawn) [F137, 4-((Z)-1,4,4,4-Tetrafluoro-3-(3,4,5-trichlorophenyl)but-1-en-1-yl)-2-(trifluoromethyl)-N—((R)-1-((3,3,3-trifluoropropyl)thio)propan-2-yl)benzamide]",mortality at 50 µg/cm2,[1],50 to 100%
same,mortality at 50 µg/cm2,[3],50 to 100%
"O=C(NCC[S+]([O-])CCF)c1ccc(/C(F)=C/C(c2cc(Cl)c(Cl)c(Cl)c2)C(F)(F)F)cc1C(F)(F)F (stereo not drawn) [F138, (Z)—N-(2-((2-Fluoroethyl)sulfinyl)ethyl)-4-(1,4,4,4-tetrafluoro-3-(3,4,5-trichlorophenyl)but-1-en-1-yl)-2-(trifluoromethyl)benzamide]",mortality at 50 µg/cm2,[1],50 to 100%
same,mortality at 50 µg/cm2,[3],50 to 100%
"C[C@H](CS(=O)(=O)CC(F)(F)F)NC(=O)c1ccc(/C(F)=C/C(c2cc(Cl)c(Cl)c(Cl)c2)C(C)(F)F)cc1 (stereo partly drawn) [FC1, 4-((Z)-1,4,4-Trifluoro-3-(3,4,5-trichlorophenyl)pent-1-en-1-yl)-N—((R)-1-((2,2,2-trifluoroethyl)sulfonyl)propan-2-yl)benzamide]",mortality at 0.05 µg/cm2,"[1]; 0.05 μg/cm^2, read-out: CL Percent control (or mortality)",0%
same,mortality at 0.5 µg/cm2,"[1]; 0.5 μg/cm^2, read-out: CL Percent control (or mortality)",81%
same,mortality at 5 µg/cm2,"[1]; 5 μg/cm^2, read-out: CL Percent control (or mortality)",100%
same,mortality at 0.05 µg/cm2,"[3]; 0.05 μg/cm^2, read-out: BAW Percent control (or mortality)",0%
same,mortality at 0.5 µg/cm2,"[3]; 0.5 μg/cm^2, read-out: BAW Percent control (or mortality)",20%
same,mortality at 5 µg/cm2,"[3]; 5 μg/cm^2, read-out: BAW Percent control (or mortality)",100%
"C[C@H](CSCC(F)(F)F)NC(=O)c1ccc(/C(F)=C/C(c2cc(Cl)c(Cl)c(Cl)c2)C(C)(F)F)cc1 (stereo partly drawn) [FC2, 4-((Z)-1,4,4-Trifluoro-3-(3,4,5-trichlorophenyl)pent-1-en-1-yl)-N—((R)-1-((2,2,2-trifluoroethyl)thio)propan-2-yl)benzamide]",mortality at 0.05 µg/cm2,"[1]; 0.05 μg/cm^2, Table CD2 comparative data, read-out: Percent control (or mortality) CL",0%
same,mortality at 0.5 µg/cm2,"[1]; 0.5 μg/cm^2, Table CD2 comparative data, read-out: Percent control (or mortality) CL",0%
same,mortality at 5 µg/cm2,"[1]; 5 μg/cm^2, Table CD2 comparative data, read-out: Percent control (or mortality) CL",100%
same,mortality at 0.05 µg/cm2,"[3]; 0.05 μg/cm^2, Table CD2 comparative data, read-out: Percent control (or mortality) BAW",0%
same,mortality at 0.5 µg/cm2,"[3]; 0.5 μg/cm^2, Table CD2 comparative data, read-out: Percent control (or mortality) BAW",20%
same,mortality at 5 µg/cm2,"[3]; 5 μg/cm^2, Table CD2 comparative data, read-out: Percent control (or mortality) BAW",100%
"C[C@H](CS(=O)(=O)CC(F)(F)F)NC(=O)c1ccc(/C(F)=C/C(c2ccc(Cl)c(F)c2)C(F)(F)F)cc1C(F)(F)F (stereo partly drawn) [PF4, 4-((Z)-3-(4-Chloro-3-fluorophenyl)-1,4,4,4-tetrafluorobut-1-en-1-yl)-N—((R)-1-((2,2,2-trifluoroethyl)sulfonyl)propan-2-yl)-2-(trifluoromethyl)benzamide]",mortality at 50 µg/cm2,[1],50 to 100%
same,mortality at 50 µg/cm2,[3],50 to 100%
"Cc1cc(C(/C=C(\F)c2ccc(C(=O)N[C@H](C)CS(=O)(=O)CC(F)(F)F)c(C(F)(F)F)c2)C(F)(F)F)ccc1Cl (stereo partly drawn) [PF8, 4-((Z)-3-(4-Chloro-3-methylphenyl)-1,4,4,4-tetrafluorobut-1-en-1-yl)-N—((R)-1-((2,2,2-trifluoroethyl)sulfonyl)propan-2-yl)-2-(trifluoromethyl)benzamide]",mortality at 50 µg/cm2,[1],50 to 100%
same,mortality at 50 µg/cm2,[3],50 to 100%

# Source: patent US10681908B2, “Molecules having pesticidal utility, and intermediates, compositions, and processes, related thereto” (Dow AgroSciences LLC, priority 2016, dated 2020)
